Measurements as given in patent publication US7084261B2, “Pegylated T1249 polypeptide” (Hoffmann-La Roche Inc., priority 2002, dated 2006).
≈ marks a conversion by molar mass, not a printed value. Like-named read-outs stand apart in the source and are kept apart here.

Key:
[1] = Pharmacokinetics of T1249 in rats after a single subcutaneous or intravenous dose; assay type: in vivo; conditions: both sexes, Sprague-Dawley, blood, rat; for half-life: read-out: T1/2terminal (converted)
Experimental: Each treatment group, consisted of 9 Sprague-Dawley rats (Charles River Laboratories, Wilmington, Del.) per sex. Each member of the group received a single subcutaneous or intravenous dose of T1249 (batch 2 referenced in Example 9/Table 5). […]
Blood samples were collected from test animals over a twelve hour time period from three rats per sex per group at each time point. The time points were 0.5, 1, 2, 4, 6, 8,10, and 12 hours after dose administration.
The blood samples were analyzed using a T1249 PcAb ECLIA assay. T1249 PcAb ECLIA is a noncompetitive, two site immunoassay that utilizes two different preparations of rabbit PcAb specific for T1249. In this assay, T1249 determinations are preformed by first incubating the diluted test sample in a tube that also contains biotin-labeled antibody (preparation A) and ruthenium-labeled antibody (preparation B). In the next step, streptavidin-coated magnetic beads are added to the tube in order to capture the antibody-peptide-antibody immune complexes (sandwiches) that have formed. The mixture is then pumped through a flow-cell in the analyzer, after which an electrical current is applied to […] adjacent to the flow-cell. Light is generated through cyclical oxidation-reduction reactions between the ruthenium metal ions that are conjugated to the detector antibodies and tripropylamine ions that are present in excess in the assay buffer. This light energy is the measured end-point. A sample containing an appreciable amount of T1249 presents a higher signal compared to a sample containing little or no T1249.

[2] = tested on: HIV-1
Excerpt: The number of stained nuclei can thus be interpreted as equal to the number of infectious virions in the challenge inoculum if there is only one round of infection prior to staining.

SMILES: CC[C@H](C)[C@H](NC(=O)[C@H](CCC(N)=O)NC(=O)[C@H](C)NC(=O)[C@H](CCC(N)=O)NC(=O)[C@H](CCC(=O)O)NC(=O)[C@H](CC(C)C)NC(=O)[C@H](CC(C)C)NC(=O)[C@H](C)NC(=O)[C@@H](NC(=O)[C@@H](NC(=O)[C@H](CCCCN)NC(=O)[C@H](CCC(N)=O)NC(=O)[C@H](CCC(=O)O)NC(=O)[C@H](Cc1c[nH]c2ccccc12)NC(=O)[C@H](CCC(=O)O)NC(=O)[C@H](CCC(N)=O)NC(=O)[C@@H](N)Cc1c[nH]c2ccccc12)[C@@H](C)CC)[C@@H](C)O)C(=O)N[C@@H](CCC(N)=O)C(=O)N[C@@H](CCC(N)=O)C(=O)N[C@@H](CCC(=O)O)C(=O)N[C@@H](CCCCN)C(=O)N[C@@H](CC(N)=O)C(=O)N[C@@H](CCC(=O)O)C(=O)N[C@@H](Cc1ccc(O)cc1)C(=O)N[C@@H](CCC(=O)O)C(=O)N[C@@H](CC(C)C)C(=O)N[C@@H](CCC(N)=O)C(=O)N[C@@H](CCCCN)C(=O)N[C@@H](CC(C)C)C(=O)N[C@@H](CC(=O)O)C(=O)N[C@@H](CCCCN)C(=O)N[C@@H](Cc1c[nH]c2ccccc12)C(=O)N[C@@H](C)C(=O)N[C@@H](CO)C(=O)N[C@@H](CC(C)C)C(=O)N[C@@H](Cc1c[nH]c2ccccc12)C(=O)N[C@@H](CCC(=O)O)C(=O)N[C@@H](Cc1c[nH]c2ccccc12)C(=O)N[C@@H](Cc1ccccc1)C(N)=O [Example T1249]
- AUC(0-inf) ([1]; 1.2 mg/kg (SC)): 27600 ng·h/mL
- AUC(0-t) ([1]; 1.2 mg/kg (SC)): 27000 ng·h/mL
- Cmax ([1]; 1.2 mg/kg (SC)): 6370 ng/mL
- Tmax ([1]; 1.2 mg/kg (SC)): 1.09 h
- half-life ([1]; 1.2 mg/kg (SC)): 2.02 h
- AUC(0-inf) ([1]; 1.5 mg/kg (IV)): 47100 ng·h/mL
- AUC(0-t) ([1]; 1.5 mg/kg (IV)): 45600 ng·h/mL
- Cmax ([1]; 1.5 mg/kg (IV)): 15700 ng/mL
- half-life ([1]; 1.5 mg/kg (IV)): 2.46 h
- AUC(0-inf) ([1]; 5.0 mg/kg (IV)): 120000 ng·h/mL
- AUC(0-t) ([1]; 5.0 mg/kg (IV)): 118000 ng·h/mL
- Cmax ([1]; 5.0 mg/kg (IV)): 46300 ng/mL
- half-life ([1]; 5.0 mg/kg (IV)): 1.86 h
- AUC(0-inf) ([1]; 15 mg/kg (SC)): 110000 ng·h/mL
- AUC(0-t) ([1]; 15 mg/kg (SC)): 107000 ng·h/mL
- Cmax ([1]; 15 mg/kg (SC)): 21500 ng/mL
- Tmax ([1]; 15 mg/kg (SC)): 1.88 h
- half-life ([1]; 15 mg/kg (SC)): 2 h
- IC50 ([2]; 50% reduction in infectious virus titer): 0.003 µg/mL (≈ 0.601 nM)
- IC90 ([2]; 90% reduction in infectious titer): 0.023 µg/mL (≈ 4.6 nM)
